Source: patent US4496551A (priority 1983, dated 1985)

How the values were obtained:
[1] = test system: Puccinia recondita var. tritici; assay: wheat leaf rust control on wheat seedlings; format: in vivo; conditions: 100 ppm, sprayed day before inoculation
Summary of the method: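 Compounds at 100 ppm (6% acetone, 250 ppm polyhydric alcohol ester surfactant in water) sprayed to run-off on wheat seedlings; inoculated next day with P. recondita spores. Kept 24 h at saturated humidity, 20°, then 7 days in growth room before rust pustule rating.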

Erysiphe cichoracearum = assay: cucumber powdery mildew control on cucumber seedlings; format: in vivo; conditions: Golovinomyces cichoracearum, 168 h, 7 days
Summary of the method: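 Compounds at 100 ppm in water with 6% acetone and 250 ppm TREM 014 surfactant, sprayed to run-off on cucumber seedlings. Inoculation with Erysiphe cichoracearum spores the following day; disease rated after 7 days in a growth room against untreated plants.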

Erysiphe graminis = assay: barley powdery mildew control on barley seedlings; format: in vivo; conditions: Blumeria graminis, 168 h; 100 ppm, 7 days
Description: Several compounds of the previous examples were again dissolved in acetone in an amount equal to 6% of the final volume and then suspended at a concentration of 100 ppm in purified water containing 250 ppm of the surfactant TREM 014 (polyhydric alcohol esters). This suspension was sprayed to the point of run-off on barley seedlings. The following day, the plants were inoculated with a spore suspension of the fungus Erysiphe graminis, causal agent of barley powdery mildew, and incubated in a growth room for 7 days. Disease ratings were then made. Treated plants had little or no powdery mildew in contrast to untreated plants which were covered with powdery mildew.

Venturia inaequalis = assay: apple scab control on apple seedlings; format: in vivo; conditions: Venturia inaequalis; 100 ppm
Summary of the method: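 Apple seedlings sprayed to run-off with 100 ppm compound suspension (6% acetone, 250 ppm TREM 014 surfactant). Inoculated next day with Venturia inaequalis spores; 24 hours at 20° in saturated humidity, then 10-12 days in growth room. Scab lesions compared with untreated plants.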

Helminthosporium maydis = assay: southern corn leaf blight control on corn seedlings; format: in vivo; conditions: Bipolaris maydis, 168 h
Summary of the method: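 Corn seedlings were sprayed to run-off with 100 ppm compound (6% acetone, 250 ppm TREM 014), inoculated next day with H. maydis spores, then kept 24 h at 20° in saturated humidity and 7 more days in a growth room. Lesions were rated as disease score.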

Cercospora arachidicola = assay: peanut early leafspot control on peanut seedlings; format: in vivo; conditions: Mycosphaerella arachidis, 336 h
Summary of the method: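 Compounds dissolved in acetone (6% of final volume) and suspended at 100 ppm in water with 250 ppm TREM 014, sprayed to run-off on seedlings. Cercospora arachidicola inoculated next day; 24 h saturated humidity at 27°, then 14 days growth room before disease and leafspot rating.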

Monilinia fructicola = assay: stone fruit brown rot colony growth inhibition on canned peach halves; format: cell-based; conditions: 120 h, dipped 3 minutes, five days, percent growth inhibition of colonies, read-out: % Control Brown Rot
Text: Several compounds of the previous examples were again dissolved in acetone in an amount equal to 5% of the final volume and then suspended at a concentration of 100 ppm in purified water containing 700 ppm of the surfactant TREM 014 (polyhydric alcohol esters). Canned peach halves were dipped in this suspension for three minutes and then placed to air dry in sterile containers. Upon drying, the peach halves were inoculated with two pieces of Monilinia fructicola, causal agent of stone fruit brown rot, mycelium and then incubated in the sterile containers for five days. At that time the radii of the colonies' growth were measured on each peach. […] Percent disease contol (percent growth inhibition of colonies on treated peaches as compared to that of colonies on untreated peaches) is expressed in the table below.

Rhizoctonia solani = assay: rice sheath blight control on rice seedlings; format: in vivo; conditions: Rhizoctonia solani, 168 h, 7 days
Summary of the method: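 Rice seedlings sprayed to run-off with 100 ppm compound suspension (6% acetone, 250 ppm surfactant), then inoculated next day with bran/mycelium of Rhizoctonia solani. After 7 days in a growth room, sheath blight disease was rated.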

Pyricularia oryzae = assay: whole plant or invertebrate; format: in vivo; conditions: 168 h, read-out: % Control of Rice Blast
Phytophthora infestans = assay: whole plant or invertebrate; format: in vivo; conditions: Phytophthora infestans, in Solanum lycopersicum, 168 h, read-out: % Control of Tomato Late Blight
5 Phytophthora species = format: cell-based; conditions: 200.0 ppm in agar, 22° C., 6 days; controlled = radial growth 1 mm or less
Pythium aphanadermatum [2] = assay: Pythium control on coated cotton seeds; format: in vivo; conditions: 168 h
Text: Several compounds of the previous examples were incorporated into a proprietary formulation and used to coat cotton seeds at a rate of 2 gm/kg seed. After being thoroughly coated, the seeds were allowed to air dry at room temperature. The cotton seeds were then planted into soil amended with the fungus Pythium aphanadermatum, sand, and corn meal at a rate sufficient to kill most untreated seeds. The seeds were held at room temperature for 1 week, after which time disease ratings were made.

Pythium aphanadermatum [3] = assay: Pythium control on coated corn seeds; format: in vivo; conditions: 504 h, 2 gm/kg seed, 49° F. 2 weeks then 70° F. 1 week
Description: Several compounds of the previous examples were incorporated into a proprietary formulation and used to coat corn seeds at a rate of 2 gm/kg seed. After being thoroughly coated, the seeds were allowed to air dry at room temperature. The seeds were then planted into soil amended with a mixture of the fungus Pythium aphanadermatum, sand, and corn meal at a rate sufficient to kill most untreated seeds. The seeds were held at 49° F. for 2 weeks and then at 70° F. for 1 additional week. After this time disease ratings were made.

cucumber seedlings = assay: phytotoxicity on cucumber seedlings; format: in vivo; parameters: key: G: growth reduction; H: hormonal effects; conditions: 100 ppm
apple seedlings = assay: phytotoxicity on apple seedlings; format: in vivo; parameters: key: B: Phytotoxic burn; conditions: 100 ppm
Description: Compounds of this invention were dissolved in acetone in an amount equal to 6% of the final volume and then suspended at a concentration of 100 ppm in purified water containing 250 ppm of the surfactant TREM 014 (polyhydric alcohol esters). This suspension was sprayed to the point of run-off on apple seedlings. The following day, the plants were inoculated with a spore suspension of the fungus Venturia inaequalis, causal agent of apple scab, and incubated in a saturated humidity chamber at 20° for 24 hours and then in a growth room for an additional 10-12 days. Treated plants from successful treatments had few or no apple scab lesions when compared to untreated plants which were covered with scab lesions.

Structure (SMILES)	pest or weed control at 100 ppm [1] [%]	pest or weed control at 100 ppm (Erysiphe cichoracearum) [%]	pest or weed control at 100 ppm (Erysiphe graminis) [%]	pest or weed control at 100 ppm (Venturia inaequalis) [%]	pest or weed control at 100 ppm (Helminthosporium maydis) [%]	pest or weed control at 100 ppm (Cercospora arachidicola) [%]	inhibition of growth at 100 ppm (Monilinia fructicola) [%]	pest or weed control at 100 ppm (Rhizoctonia solani) [%]	pest or weed control at 100 ppm (Pyricularia oryzae) [%]	pest or weed control at 100 ppm (Phytophthora infestans) [%]	No. of 5 Phytophthora species controlled in vitro (5 Phytophthora species)	pest or weed control at 2000 mg/kg (Pythium aphanadermatum [2]; 2 gm/kg seed, 1 week) [%]	pest or weed control at 2000 mg/kg (Pythium aphanadermatum [3]) [%]	pest or weed control at 500 mg/kg (Pythium aphanadermatum [2]; 0.5 gm/kg seed) [%]	Phytotoxicity (growth reduction or hormonal effects) (cucumber seedlings)	Phytotoxic burn (apple seedlings)
C[Si](C)(Cn1ccnc1)c1ccc(Oc2ccccc2)cc1 [(1H-Imidazol-1-ylmethyl)dimethyl(4-phenoxyphenyl)silane]	60	100	0	100	0	0	80	70	70	80	4	0	5			
C[Si](C)(Cn1ccnc1)c1ccc(Cl)c(Cl)c1 [(3,4-Dichlorophenyl)(1H-imidazol-1-ylmethyl)dimethylsilane]	0	100	80	80	70	0		0	0	0			30	15		
C[Si](Cn1ccnc1)(c1ccccc1)c1ccc(Cl)cc1 (stereo not drawn) [(4-Chlorophenyl)(1H-imidazol-1-ylmethyl)methyl(phenyl)silane]	100	100		100	0	100	45	0	0	0	0					
C[Si](Cn1ccnc1)(c1ccccc1)c1ccc(F)cc1 (stereo not drawn) [(4-Fluorophenyl)(1H-imidazol-1-ylmethyl)methyl(phenyl)silane]	0	100		100	80	100	65	90	100	0	2					
CCCC[Si](C)(Cn1ccnc1)c1ccc(Cl)cc1Cl (stereo not drawn) [Butyl(2,4-dichlorophenyl)(1H-imidazol-1-ylmethyl)methylsilane]	100	100		100	80	100		90	0	0					G	B
